Laboratory results published in ChEMBL document CHEMBL3885881, “DrugMatrix”.

Species on record: Rattus norvegicus
Test: DrugMatrix - Regimen: Daily Repeat
Assay type: toxicity, organism-based, Sprague-Dawley
Design: regimen Daily Repeat, gender Male, age 6-8 weeks
Conditions: in vivo, po, route oral GAVAGE, vehicle .5 % CMC; for ABSOLUTE BASOPHIL / ABSOLUTE EOSINOPHIL / ABSOLUTE LYMPHOCYTE / ABSOLUTE MONOCYTE / ABSOLUTE SEGMENTED NEUTROPHIL / BASOPHIL / EOSINOPHIL / ERYTHROCYTE COUNT / HEMATOCRIT / HEMOGLOBIN / LEUKOCYTE COUNT / LYMPHOCYTE / MEAN CORPUSCULAR HEMOGLOBIN / MEAN CORPUSCULAR HEMOGLOBIN CONCENTRATION / MEAN CORPUSCULAR VOLUME / MONOCYTE / NEUTROPHIL / NUCLEATED RED BLOOD CELLS / PLATELET COUNT: tissue Blood; for ALANINE AMINOTRANSFERASE / ALBUMIN / ALKALINE PHOSPHATASE / ASPARTATE AMINOTRANSFERASE / BLOOD UREA NITROGEN / CARBON DIOXIDE / CHLORIDE / CHOLESTEROL / CREATINE PHOSPHOKINASE / CREATININE / GLUCOSE / LACTATE DEHYDROGENASE / LIPASE / PHOSPHORUS / POTASSIUM / SODIUM / TOTAL BILIRUBIN / TOTAL PROTEIN / URIC ACID: tissue Plasma
[1] = 3 mg/kg, 120 h, dose level Low, time 5 day
[2] = 17 mg/kg, 72 h, dose level High, time 3 day
[3] = 17 mg/kg, 120 h, dose level High, time 5 day

SMILES: COc1nc(C)nc(Cl)c1N=C1NCCN1 [MOXONIDINE]
- ABSOLUTE BASOPHIL [1]: 0 CELLS/uL
- ABSOLUTE EOSINOPHIL [1]: 0 CELLS/uL
- ABSOLUTE LYMPHOCYTE [1]: 12936.33 CELLS/uL
- ABSOLUTE MONOCYTE [1]: 47.33 CELLS/uL
- ABSOLUTE SEGMENTED NEUTROPHIL [1]: 1849.67 CELLS/uL
- BASOPHIL [1]: 0%
- EOSINOPHIL [1]: 0%
- ERYTHROCYTE COUNT [1]: 5.72 x10E6/uL
- HEMATOCRIT [1]: 36.07%
- HEMOGLOBIN [1]: 14.37 G/DL
- LEUKOCYTE COUNT [1]: 14.83 x10E3/uL
- LYMPHOCYTE [1]: 87%
- MEAN CORPUSCULAR HEMOGLOBIN [1]: 25.13 pg
- MEAN CORPUSCULAR HEMOGLOBIN CONCENTRATION [1]: 39.8 G/DL
- MEAN CORPUSCULAR VOLUME [1]: 63.1 fL
- MONOCYTE [1]: 0.33%
- NEUTROPHIL [1]: 12.67%
- NUCLEATED RED BLOOD CELLS [1]: 0.33 /100WBC
- PLATELET COUNT [1]: 943.67 x10E3/uL
- ALANINE AMINOTRANSFERASE [1]: 44.67 u/L
- ALBUMIN [1]: 4.13 G/DL
- ALKALINE PHOSPHATASE [1]: 346 u/L
- ASPARTATE AMINOTRANSFERASE [1]: 83.67 u/L
- BLOOD UREA NITROGEN [1]: 17.67 mg/dL
- CARBON DIOXIDE [1]: 29.33 mmol/L
- CHLORIDE [1]: 98 MEQ/L
- CHOLESTEROL [1]: 69.67 mg/dL
- CREATINE PHOSPHOKINASE [1]: 484.67 u/L
- CREATININE [1]: 0.19 mg/dL
- GLUCOSE [1]: 147 mg/dL
- LACTATE DEHYDROGENASE [1]: 166.67 u/L
- LIPASE [1]: 10 u/L
- PHOSPHORUS [1]: 13.4 mg/dL
- POTASSIUM [1]: 6.24 MEQ/L
- SODIUM [1]: 145.27 MEQ/L
- TOTAL BILIRUBIN [1]: 0.2 mg/dL
- TOTAL PROTEIN [1]: 6.03 G/DL
- URIC ACID [1]: 1.57 mg/dL
- ABSOLUTE BASOPHIL [2]: 0 CELLS/uL
- ABSOLUTE EOSINOPHIL [2]: 110.67 CELLS/uL
- ABSOLUTE LYMPHOCYTE [2]: 13070 CELLS/uL
- ABSOLUTE MONOCYTE [2]: 298.67 CELLS/uL
- ABSOLUTE SEGMENTED NEUTROPHIL [2]: 1454 CELLS/uL
- BASOPHIL [2]: 0%
- EOSINOPHIL [2]: 0.67%
- ERYTHROCYTE COUNT [2]: 6.02 x10E6/uL
- HEMATOCRIT [2]: 36.53%
- HEMOGLOBIN [2]: 14.5 G/DL
- LEUKOCYTE COUNT [2]: 14.93 x10E3/uL
- LYMPHOCYTE [2]: 87.33%
- MEAN CORPUSCULAR HEMOGLOBIN [2]: 24.07 pg
- MEAN CORPUSCULAR HEMOGLOBIN CONCENTRATION [2]: 39.67 G/DL
- MEAN CORPUSCULAR VOLUME [2]: 60.63 fL
- MONOCYTE [2]: 2%
- NEUTROPHIL [2]: 10%
- NUCLEATED RED BLOOD CELLS [2]: 0 /100WBC
- PLATELET COUNT [2]: 1171.33 x10E3/uL
- ALANINE AMINOTRANSFERASE [2]: 46.67 u/L
- ALBUMIN [2]: 3.9 G/DL
- ALKALINE PHOSPHATASE [2]: 274 u/L
- ASPARTATE AMINOTRANSFERASE [2]: 131.67 u/L
- BLOOD UREA NITROGEN [2]: 17.67 mg/dL
- CARBON DIOXIDE [2]: 23.67 mmol/L
- CHLORIDE [2]: 104 MEQ/L
- CHOLESTEROL [2]: 63 mg/dL
- CREATINE PHOSPHOKINASE [2]: 1708.67 u/L
- CREATININE [2]: 0.17 mg/dL
- GLUCOSE [2]: 146 mg/dL
- LACTATE DEHYDROGENASE [2]: 536.33 u/L
- LIPASE [2]: 8.67 u/L
- PHOSPHORUS [2]: 9.2 mg/dL
- POTASSIUM [2]: 5.68 MEQ/L
- SODIUM [2]: 142.1 MEQ/L
- TOTAL BILIRUBIN [2]: 0.17 mg/dL
- TOTAL PROTEIN [2]: 5.43 G/DL
- URIC ACID [2]: 1.53 mg/dL
- ABSOLUTE BASOPHIL [3]: 0 CELLS/uL
- ABSOLUTE EOSINOPHIL [3]: 74 CELLS/uL
- ABSOLUTE LYMPHOCYTE [3]: 15545.33 CELLS/uL
- ABSOLUTE MONOCYTE [3]: 52.33 CELLS/uL
- ABSOLUTE SEGMENTED NEUTROPHIL [3]: 1961.67 CELLS/uL
- BASOPHIL [3]: 0%
- EOSINOPHIL [3]: 0.33%
- ERYTHROCYTE COUNT [3]: 5.87 x10E6/uL
- HEMATOCRIT [3]: 34.5%
- HEMOGLOBIN [3]: 13.8 G/DL
- LEUKOCYTE COUNT [3]: 17.63 x10E3/uL
- LYMPHOCYTE [3]: 88.67%
- MEAN CORPUSCULAR HEMOGLOBIN [3]: 23.5 pg
- MEAN CORPUSCULAR HEMOGLOBIN CONCENTRATION [3]: 40 G/DL
- MEAN CORPUSCULAR VOLUME [3]: 58.73 fL
- MONOCYTE [3]: 0.33%
- NEUTROPHIL [3]: 10.67%
- NUCLEATED RED BLOOD CELLS [3]: 0.33 /100WBC
- PLATELET COUNT [3]: 1240.33 x10E3/uL
- ALANINE AMINOTRANSFERASE [3]: 48 u/L
- ALBUMIN [3]: 3.97 G/DL
- ALKALINE PHOSPHATASE [3]: 270.33 u/L
- ASPARTATE AMINOTRANSFERASE [3]: 91.33 u/L
- BLOOD UREA NITROGEN [3]: 23 mg/dL
- CARBON DIOXIDE [3]: 25 mmol/L
- CHLORIDE [3]: 104.67 MEQ/L
- CHOLESTEROL [3]: 70.33 mg/dL
- CREATINE PHOSPHOKINASE [3]: 333.33 u/L
- CREATININE [3]: 0.21 mg/dL
- GLUCOSE [3]: 128 mg/dL
- LACTATE DEHYDROGENASE [3]: 169 u/L
- LIPASE [3]: 9.67 u/L
- PHOSPHORUS [3]: 10.3 mg/dL
- POTASSIUM [3]: 5.89 MEQ/L
- SODIUM [3]: 144.27 MEQ/L
- TOTAL BILIRUBIN [3]: 0.17 mg/dL
- TOTAL PROTEIN [3]: 5.67 G/DL
- URIC ACID [3]: 1.43 mg/dL
